Assays:
mice [1] = assay: tail flick test; type: in vivo, Male ICR mice; conditions: 15 minutes after administration, cut off time 10 seconds
Description: In the following Examples, all extracts and drugs used were dissolved in physiological saline before use for i.p. administration and the dose was 0.1 ml of physiological saline per 10 g of mouse body weight in either case. All extracts and drugs were suspended in physiological saline containing 1% sodium carboxymethylcellulose before use for oral administration and the dose was 0.1 ml of 1% sodium carboxymethylcellulose-containing physiological saline suspension per 10 g of mouse body weight in either case. Male ICR mice (Japan SLC) having a body weight of 25 to 30 g were used in the tests below unless otherwise stated, and were fed in advance at a room temperature of 23±1° C. and a relative humidity of 55±5% in the environment of a cycle of 12-hour-light from 7 a.m. to 7 p.m. and 12-hour-dark from 7 p.m. to 7 a.m. for 3 to 5 days. […]
A tail flick test is a method in which, when radiant heat stimulation is locally added to a part of a tail 1 to 2 cm away from the tail root part of a mouse, a reaction of raising a tail as a provisional pain reaction is manifested, and anti-invasion action is determined by utilizing this reaction.
Seven to nine mice per group were used. […] The reaction that a mouse raised a tail upon addition of radiant heat was regarded as a provisional pain reaction, and a time until its manifestation (latency time) was measured. […]

mice [2] = assay: forced swimming test (antidepressive action); type: in vivo, Male ICR mice; conditions: 100 mg/kg i.p., 6-minute period
Description: (§1) In the following Examples, all extracts and drugs used were dissolved in physiological saline before use for i.p. administration and the dose was 0.1 ml of physiological saline per 10 g of mouse body weight in either case. All extracts and drugs were suspended in physiological saline containing 1% sodium carboxymethylcellulose before use for oral administration and the dose was 0.1 ml of 1% sodium carboxymethylcellulose-containing physiological saline suspension per 10 g of mouse body weight in either case. Male ICR mice (Japan SLC) having a body weight of 25 to 30 g were used in the tests below unless otherwise stated, and were fed in advance at a room temperature of 23±1° C. and a relative humidity of 55±5% in the environment of a cycle of 12-hour-light from 7 a.m. to 7 p.m. and 12-hour-dark from 7 p.m. to 7 a.m. for 3 to 5 days. The mice were allowed to have water and feed freely.
Forced swimming tests were conducted according to the method of Porsolt et al. A mouse was placed in a cylindrical glass water tank of 10 cm in diameter and 25 cm in height (water temperature: 23° C.) filled with water to a depth of 10 cm and forced to swim therein. […] Each mouse was forced to swim 15 and 30 minutes after administration, and the immobile times during the 6-minute periods immediately after forced swimming were determined. […]

mice [3] = assay: formalin pad test; type: in vivo, Male ICR mice; conditions: for Licking sustaining time (second) First phase: 0 to 5 minutes; for Licking sustaining time (second) Second phase: 15 to 30 minutes
Description: as §1
A formalin pad test is a method in which, when formalin is subcutaneously administered to a pad of a mouse, the mouse causes licking, and analgesic action of a test drug is determined by utilizing this. Suppression of licking in a test drug-administered group was investigated relative to a physiological saline-administered control group, and analgestic action was evaluated.
Six mice per group were used. Neferine hydrochloride was intraperitoneally administered at a dose of 25 mg/kg, 50 mg/kg or 100 mg/kg and, after fifteen minutes, 20 μl of a 0.2% by weight formalin aqueous solution was subcutaneously administered to a right hind paw pad. After formalin administration, licking was regarded as a provisional pain reaction, and a licking sustaining time in a first phase from immediately after formalin administration to five minutes after formalin administration and in a second phase from 15 minutes to 30 minutes after formalin administration was measured. Regarding the resulting measurements, a significant difference test was performed by a Dunnet multiple comparison test method.
According to the same manner as in Example 13 except that 10 mg/kg of O-methylarmepavine was intraperitoneally administered in place of neferine, a formalin pad test was performed.

mice [4] = assay: glass ball-covering behavior test (obsessive compulsive disorders); type: in vivo, Male ICR mice
Description: as §1
In evaluating glass ball-covering behavior, wood chip for breeding (beta chip) (Oriental Yeast Co., Ltd.) was placed in the transparent cage described in Example 3 to a depth of 5 cm, on which 20 glass balls (diameter: 1.5 cm) were placed evenly.
Twenty-one mice were grouped into three groups each of seven mice, to which 25 mg/kg of neferine hydrochloride (treatment group 6-1), 50 mg/kg of the same (treatment group 6-2), and physiological saline (negative control group) were administered intraperitoneally, respectively. A mouse was placed in the cage 15 minutes after administration, and the number of the glass balls not covered with the wood chip was counted by visual observation at an interval of 10 minutes. The number of balls having ⅔ or more of the surface thereof being embedded in the wood chip when the cage was observed from above was counted as the criteria for judgment.

mice [5] = conditions: Ito et al., abstract of the Japanese Society of Pharmacognosy; cited from earlier work
[6] = 25 mg/kg i.p. 15 minutes before formalin
[7] = 50 mg/kg i.p. 15 minutes before formalin
[8] = 100 mg/kg i.p. 15 minutes before formalin

COc1ccc(C[C@@H]2c3cc(Oc4cc(C[C@@H]5c6cc(OC)c(OC)cc6CCN5C)ccc4O)c(OC)cc3CCN2C)cc1 [neferine]
% MPE (mice [1]; 50 mg/kg i.p.): 5.0 ± 2.30%
% MPE (mice [1]; 100 mg/kg i.p.): 15.6 ± 2.89 %
Immobile time (sec) After 15 minutes (mice [2]; 15 minutes after administration): 165 s
Immobile time (sec) After 30 minutes (mice [2]; 30 minutes after administration): 170 s
Licking sustaining time (second) First phase (mice [3]; [6]): 95.2 ± 3.79 s
Licking sustaining time (second) Second phase (mice [3]; [6]): 235.7 ± 13.01 s
Licking sustaining time (second) First phase (mice [3]; [7]): 98.7 ± 8.57 s
Licking sustaining time (second) Second phase (mice [3]; [7]): 200.3 ± 24.43 s
Licking sustaining time (second) First phase (mice [3]; [8]): 78.3 ± 7.57 s
Licking sustaining time (second) Second phase (mice [3]; [8]): 139.7 ± 18.61 s
Number of glass balls covered with wood chip After 20 minutes (mice [4]; 25 mg/kg i.p.): 7
Number of glass balls covered with wood chip After 30 minutes (mice [4]; 25 mg/kg i.p.): 10
Number of glass balls covered with wood chip After 10 minutes (mice [4]; 25 mg/kg i.p., placed in cage 15 minutes after administration): 4
Number of glass balls covered with wood chip After 10 minutes (mice [4]; 50 mg/kg i.p.): 3
Number of glass balls covered with wood chip After 20 minutes (mice [4]; 50 mg/kg i.p.): 6
Number of glass balls covered with wood chip After 30 minutes (mice [4]; 50 mg/kg i.p.): 9
locomotor activity-inhibiting action (mice [5]): exhibited a locomotor activity-inhibiting action

From patent US20070027181A1, “Benzylisoquinoline derivative- or bisbenzylisoquinoline derivative-containing psychotropic agent, analgesic and/or antiphlogistic, and health food” (EDUCATION CENTER OF TRADITIONAL, priority 2004, published 2007)
